Measured values from patent US20210300943A1, “OGA INHIBITOR COMPOUNDS” (Janssen Pharmaceutica NV, priority 2018, published 2021).
Counter-ions that a name gives are not always drawn.

What was measured:
[1] = biological target: T1, recombinant human Meningioma Expressed Antigen 5 (MGEA5), also referred to as O-GlcNAcase (OGA) (Homo sapiens, UniProt O60502); experiment: OGA biochemical assay (inhibition of FM-GlcNAc hydrolysis, fluorescence); settings: for IC50: read-out: Enzymatic hOGA, pIC50 (converted); for Emax: read-out: Enzymatic Emax (%)
T1 construct: Full length OGA enzyme was purchased at OnGene (cat #TP322411); purchased OnGene (so in the source)
T1 sequence (O60502 1-916): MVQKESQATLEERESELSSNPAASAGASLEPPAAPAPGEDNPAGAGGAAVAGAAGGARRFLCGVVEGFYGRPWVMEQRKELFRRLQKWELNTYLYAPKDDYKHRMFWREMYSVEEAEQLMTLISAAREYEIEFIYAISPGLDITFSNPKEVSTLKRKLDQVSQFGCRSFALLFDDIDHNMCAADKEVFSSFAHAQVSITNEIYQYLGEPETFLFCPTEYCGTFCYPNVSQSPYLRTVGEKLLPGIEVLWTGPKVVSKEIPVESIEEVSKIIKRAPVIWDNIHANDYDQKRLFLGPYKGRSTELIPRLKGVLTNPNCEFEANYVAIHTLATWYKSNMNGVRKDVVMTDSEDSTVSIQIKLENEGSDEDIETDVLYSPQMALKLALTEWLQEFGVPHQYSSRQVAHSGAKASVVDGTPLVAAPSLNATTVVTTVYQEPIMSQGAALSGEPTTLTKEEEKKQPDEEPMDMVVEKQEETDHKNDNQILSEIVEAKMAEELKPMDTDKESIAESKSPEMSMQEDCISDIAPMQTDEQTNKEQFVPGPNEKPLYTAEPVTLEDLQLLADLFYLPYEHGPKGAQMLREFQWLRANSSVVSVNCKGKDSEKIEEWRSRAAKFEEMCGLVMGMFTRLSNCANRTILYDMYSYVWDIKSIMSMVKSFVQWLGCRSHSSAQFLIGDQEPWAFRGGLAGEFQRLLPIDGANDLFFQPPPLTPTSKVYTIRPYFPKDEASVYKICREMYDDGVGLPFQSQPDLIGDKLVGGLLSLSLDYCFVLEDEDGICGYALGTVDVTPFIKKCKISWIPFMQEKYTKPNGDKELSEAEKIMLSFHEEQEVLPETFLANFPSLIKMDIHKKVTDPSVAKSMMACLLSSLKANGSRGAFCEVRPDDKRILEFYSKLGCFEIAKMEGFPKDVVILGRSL
How it was run: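 Full-length recombinant OGA (2 nM) pre-incubated with compound 60 min at room temperature, then FM-GlcNAc (100 µM final) added in citrate/phosphate buffer pH 7.2 with 0.005% Tween-20. After 6 h at room temperature, stopped with carbonate pH 11.0; fluorescein read at 485/538 nm; IC50 and Hill coefficient from curve fit.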

OGA = biological target: T2, OGA (Homo sapiens, UniProt O60502); experiment: OGA cellular assay (ICC detection of O-GlcNAcylated proteins in HEK293 cells inducible for P301L mutant human Tau); type: cell-based; settings: for Emax: HEK293, HEK293 cells inducible for P301L mutant human Tau, maximal effect, Thiamet G 200 uM as maximum; for EC50: HEK293 cells inducible for P301L mutant human Tau, 6 hours incubation, read-out: Cellular hOGA, pEC50 (converted)
T2 construct: endogenous in cells; host or cells: HEK293 cells inducible for P301L mutant human Tau (2N4R)
T2 sequence (O60502 1-916): T1 sequence (O60502 1-916)
How it was run: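 HEK293 cells inducible for P301L Tau, in low-glucose assay medium, treated 6 h with compound at 0.2% DMSO. O-GlcNAcylated proteins detected by CTD110.6 immunostaining, imaged at 488 nm with Hoechst nuclear counts for toxicity. IC50 from non-linear regression, 200 uM Thiamet G as maximum.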

SMILES | melting point [°C] | Enzymatic Emax (%) ([1]; maximal effect) | IC50 [1] [µM] | Emax (OGA) [%] | EC50 (OGA) [µM] | Emax ([1]; maximal effect) [%]
Cc1cc(NCC2CCCN(C(C)c3ccc4c(n3)OCCO4)C2)cc(C)n1 (stereo not shown) (as salt: HCl) [Product 21] | 193 |  |  |  |  | 
COc1cc(NCC2CCCN(C(C)c3ccc4c(c3)OCC4)C2)cc(C)n1 (stereo not shown) (as salt: HCl) [Product 30] | 261.3 |  |  |  |  | 
Cc1cc(NCC2CCCN(C(C)c3cc4c(cc3F)OCCO4)C2)cc(C(F)(F)F)n1 (stereo not shown) (as salt: HCl) [Product 99] | 235.3 |  |  |  |  | 
Cc1cc(CC2CN(C(C)c3ccc4c(n3)OCCO4)CCC2O)cc(C)n1 (stereo not shown) [Product 173] |  |  | 0.0631 | 64 | 0.631 | 99
Cc1cc(NC[C@H]2CCCN(C(C)c3nc4c(cc3F)OCCO4)C2)cc(C)n1 (stereo partly shown) [Product 181] |  |  | 0.00398 | 92 | 0.00158 | 101
Cc1cc(C2CCCN(C(C)c3nc4c(cc3F)OCCO4)C2)cc(C(F)F)n1 (stereo not shown) [Product 187] |  |  | 0.00794 | 92 | 0.0126 | 96
Cc1cc(C2CCCN(C(C)c3nc4c(cc3F)OCCO4)C2)c(F)c(C)n1 (stereo not shown) [Product 189] |  |  | 0.00794 | 88 | 0.0158 | 100
COc1cc(N[C@H]2CCCN(C(C)c3ccc4c(n3)OCCO4)C2)cc(C)n1 (stereo partly shown) [Product 192] |  |  | 0.00631 | 91 | 0.02 | 99
Cc1cc(CN[C@H]2CCCN(C(C)c3nc4c(cc3F)OCCO4)C2)cc(C)n1 (stereo partly shown) [Product 193] |  |  | 0.00316 | 95 | 0.0316 | 99
Cc1cc(CN[C@H]2CCCN(C(C)c3ccc4c(n3)OCCO4)C2)cc(C)n1 (stereo partly shown) [Product 194] |  |  | 0.02 | 71 | 0.251 | 97
CC(c1nc2c(cc1F)OCCO2)N1CCC[C@@H](CNc2ccc(F)cc2)C1 (stereo partly shown) [Product 195] |  |  | 0.0158 | 112 | 0.0794 | 100

Continued, values first:

melting point [°C] | Enzymatic Emax (%) ([1]; maximal effect) | IC50 [1] [µM] | Emax (OGA) [%] | EC50 (OGA) [µM] | Emax ([1]; maximal effect) [%] | SMILES
248.4 |  |  |  |  |  | Cc1cc(NCC2CCCN(C(C)c3ccc4c(c3)OCC4)C2)cc(C)n1 (stereo not shown) (as salt: HCl) [Product 22]
266.7 |  |  |  |  |  | COc1cc(NCC2CCCN(C(C)c3ccc4c(n3)OCCO4)C2)cc(C)n1 (stereo not shown) (as salt: HCl) [Product 23]
164.7 |  |  |  |  |  | COc1cc(NCC2CCCN(C(C)c3cc4c(cc3F)OCCO4)C2)cc(C)n1 (stereo not shown) (as salt: HCl) [Product 38]
62.45 | 102 | 0.0398 | 45 | > 1 |  | Cc1cc(C[C@H]2CCCN(C(C)c3ccc4c(n3)OCC(=O)N4)C2)cc(C)n1 (single isomer, unassigned) [Product 61]
 |  | 0.0398 | 78 | 0.126 | 99 | COC1CCN(C(C)c2ccc3c(n2)OCCO3)CC1Cc1cc(C)nc(C)c1 (stereo not shown) [Product 172]
 |  | 0.00398 | 106 | 0.00158 | 99 | COc1cc(NC[C@H]2CCCN(C(C)c3nc4c(cc3F)OCCO4)C2)cc(C)n1 (stereo partly shown) [Product 182]
 |  | 0.0158 | 65 | 0.0501 | 100 | Cc1cc(C2CCCN(C(C)c3ccc4c(n3)OCCO4)C2)c(F)c(C)n1 (stereo not shown) [Product 185]
 |  | 0.01 | 79 | 0.1 | 102 | Cc1cc(C2CCCN(C(C)c3ccc4c(n3)OCCO4)C2)cc(C(F)F)n1 (stereo not shown) [Product 188]
 |  | 0.01 | 82 | 0.0501 | 101 | Cc1cc(C2CCCN(C(C)c3cc4c(cc3F)NCCO4)C2)cc(C)n1 (stereo not shown) [Product 190]
 |  | 0.00501 | 81 | 0.0158 | 95 | Cc1cc(OC[C@H]2CCCN(C(C)c3cc4c(cc3F)NCCO4)C2)cc(C)n1 (stereo partly shown) [Product 191]
 |  | 0.0398 | 70 | 0.251 | 95 | CC(c1nc2c(cc1F)OCCO2)N1CCC[C@H](NCc2ccc(F)cc2)C1 (stereo partly shown) [Product 196]
 |  | 0.398 | 66 | 0.631 | 98 | CC(c1ccc2c(n1)OCCO2)N1CCC[C@H](NCc2ccc(F)cc2)C1 (stereo partly shown) [Product 197]
 |  | 0.0398 | 82 | 0.398 | 94 | COc1cc(CN[C@H]2CCCN(C(C)c3ccc4c(n3)OCCO4)C2)cc(C)n1 (stereo partly shown) [Product 198]
